According to ChEMBL document CHEMBL1201862, “PubChem BioAssay data set” (2004):
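Exposure lasted 48 hours, with cells grown in 96-well plates and compounds tested at five concentrations. Here, GI50 denotes the concentration required for 50% inhibition of growth.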 Active and inactive are the calls of the source. No stated cut-off is given here; in the data, active = GI50 up to about 1.1 µM and inactive = higher.

Key:
Test in all cases: NCI tumour cell line growth inhibition, 48 h
786-0 = system: 786-0
A498 = system: A498
A549 = system: A549
ACHN = system: ACHN
CAKI-1 = system: CAKI-1
CCRF-CEM = system: CCRF-CEM
COLO 205 = system: COLO 205
DLD-1 = system: DLD-1
DMS-273 = system: DMS-273
EKVX = system: EKVX
HCC 2998 = system: HCC 2998
HL-60 = system: HL-60
HOP-62 = system: HOP-62
HOP-92 = system: HOP-92
HT-29 = system: HT-29
IGROV-1 = system: IGROV-1
K562 = system: K562
KM-20L2 = system: KM-20L2
KM12 = system: KM12
LOX IMVI = system: LOX IMVI
LXFL 529 = system: LXFL 529
M14 = system: M14
M19-MEL = system: M19-MEL
MOLT-4 = system: MOLT-4
Malme-3M = system: Malme-3M
NCI-H23 = system: NCI-H23
NCI-H460 = system: NCI-H460
NCI-H522 = system: NCI-H522
OVCAR-3 = system: OVCAR-3
OVCAR-4 = system: OVCAR-4
OVCAR-5 = system: OVCAR-5
OVCAR-8 = system: OVCAR-8
RPMI-8226 = system: RPMI-8226
RXF 393 = system: RXF 393
SF-268 = system: SF-268
SF-295 = system: SF-295
SF-539 = system: SF-539
SK-MEL-28 = system: SK-MEL-28
SK-MEL-2 = system: SK-MEL-2
SK-MEL-5 = system: SK-MEL-5
SK-OV-3 = system: SK-OV-3
SN12C = system: SN12C
SNB-19 = system: SNB-19
SNB-75 = system: SNB-75
SNB-78 = system: SNB-78
SW-620 = system: SW-620
TK-10 = system: TK-10
U-251 = system: U-251
UACC-257 = system: UACC-257
UACC-62 = system: UACC-62
UO-31 = system: UO-31
XF498 = system: XF498

Measured: GI50

O=C(O[C@H]1[C@@H]2C=CO[C@@H](OC3OC(CO)C(O)C(O)C3O)[C@@H]2[C@@]2(CO)O[C@@H]12)c1ccc(O)c(O)c1 (some centres not stated)
inactive: 786-0 > 100 µM | A498 > 100 µM | A549 > 100 µM | ACHN > 100 µM | CAKI-1 > 100 µM | CCRF-CEM > 100 µM | COLO 205 > 100 µM | DLD-1 > 100 µM | DMS-273 > 100 µM | EKVX > 100 µM | HCC 2998 > 100 µM | HL-60 > 100 µM | HOP-62 > 100 µM | HOP-92 > 100 µM | HT-29 > 100 µM | IGROV-1 > 100 µM | K562 > 100 µM | KM-20L2 > 100 µM | KM12 > 100 µM | LOX IMVI > 100 µM | LXFL 529 > 100 µM | M14 > 100 µM | M19-MEL > 100 µM | MOLT-4 > 100 µM | Malme-3M > 100 µM | NCI-H23 > 100 µM | NCI-H460 > 100 µM | NCI-H522 > 100 µM | OVCAR-3 > 100 µM | OVCAR-4 > 100 µM | OVCAR-5 > 100 µM | OVCAR-8 > 100 µM | RPMI-8226 > 100 µM | RXF 393 > 100 µM | SF-268 > 100 µM | SF-295 > 100 µM | SF-539 > 100 µM | SK-MEL-28 > 100 µM | SK-MEL-2 > 100 µM | SK-MEL-5 > 100 µM | SK-OV-3 > 100 µM | SN12C > 100 µM | SNB-19 > 100 µM | SNB-75 > 100 µM | SNB-78 > 100 µM | SW-620 > 100 µM | TK-10 > 100 µM | U-251 > 100 µM | UACC-257 > 100 µM | UACC-62 > 100 µM | UO-31 > 100 µM | XF498 41.5 µM
